Reference: publication PMC4138103 (PLoS ONE, 2014)
Where two headings read alike, the source gives them in different places.

Experiments:
[1] = system: Dopamine receptors D1 and D5; experiment: Brain [3H]SCH23390 binding in exposed rats; assay type: in vivo, Rattus norvegicus; conditions: males
Procedure: The membrane containing pellet was homogenized in 15 volumes of 50 mM Tris-HCl buffer at pH 7.4, incubated at 25°C for 30 min, and centrifuged again at 100 000 g. The pellet from the second centrifugation was dissolved in 4 ml 0.32 M sucrose/g brain (v/w), with a final protein concentration of […] and frozen at −40°C.
Dopamine receptors D1 and D5 were analyzed as described before, [39]. In brief, 50 µl (0.7 mg protein) of the membrane preparation was incubated with 124–132 µl buffer (50 mM tris-HCL, 120 mM NaCl, 5 mM KCl, 2,5 mM CaCl2 and 1 mM MgCl2, pH 7.4) and 100 nM ketanserine (Tocris Bioscience, Bristol, UK; to block binding of SCH23390 to the 5-HT receptor) to a final volume of 200 µl. For measuring unspecific binding […] SCH23390 was added to the same mixture. Finally, 1 nM [^3H]SCH23390 was added to all samples to measure binding of the receptors or unspecific binding. The samples were incubated for 30 min at 25°C followed by vacuum filtration and scintillation counting.
Samples were vacuum filtrated trough Whatman glassfiber-filters (type GF/B, 25 mm) and washed 3×3 ml ice-cold incubation buffer. To reduce unspecific binding, the filters where pre-wetted in 1% polyetylenimine for 60 min. […] Radioactive binding was measured as disintegration per minute (DPM1) in a scintillation counter (Tri-Carb 3100TR, Perkin Elmer). […]

[2] = system: Sprague-Dawley rats; experiment: Bone biomechanics, three-point bending test of tibial shaft; assay type: in vivo, Rattus norvegicus; parameters: key to Dose response: Biomechanics, diaphysis, Yield Force: D: significant dose response (for results, see Table 2); T: significant trend; conditions: for Emax: Rattus norvegicus; for F yield, CED / F yield, CED-L: total dose based
Procedure: For biomechanical testing hind limbs were defrosted and tibial shafts tested with a three-point bending test using a custom made testing apparatus, [34]. Each bone was placed on a support with a span length of 13 mm and bending load was applied with a constant speed of 0.155 mm/sec until failure. The breaking force, bending stiffness and yield force were defined from load-displacement data. Stiffness was calculated as the slope of the linear part of load-displacement curve. Yield force was defined as a corresponding force where the fit for stiffness separated from the measured load-displacement curve. The breaking force was defined as bending load at maximum. Corresponding to these forces also both failure and yield deformations were evaluated.
Data were also analyzed using the BMD method, which is based on dose-response modeling of the full data set using a nested family of exponential and Hill models. The analyses were done on data of males and females combined, using sex as a covariate. […] In that case, different Critical Effect Doses (CEDs) and CEDs at the lowest bound of the confidence interval (CED-L) were generated for each sex. If no difference between sexes is detected, a CED and CED-Ls for the combined data is generated. However, this was also done if the curve fits are close, and separate analyses for males and females were then performed manually. CEDs and CED-Ls were calculated at the predefined Critical Effect Size (CES) of 5% (EFSA standard) or 10%.

[3] = F, CES 5%, model E2, adipose tissue concentration based
[4] = F, CES 10%, model E2, adipose tissue concentration based
[5] = tibia, females, total dose 3 mg/kg bw
[6] = tibia, females, total dose 10 mg/kg bw
[7] = tibia, females, total dose 30 mg/kg bw
[8] = tibia, females, total dose 100 mg/kg bw
[9] = tibia, females, total dose 300 mg/kg bw
[10] = tibia, females, total dose 1000 mg/kg bw
[11] = tibia, females, total dose 1700 mg/kg bw
[12] = tibia, males, total dose 3 mg/kg bw
[13] = tibia, males, total dose 10 mg/kg bw
[14] = tibia, males, total dose 30 mg/kg bw
[15] = tibia, males, total dose 100 mg/kg bw
[16] = tibia, males, total dose 300 mg/kg bw
[17] = tibia, males, total dose 1000 mg/kg bw
[18] = tibia, males, total dose 1700 mg/kg bw

Clc1cc(Cl)c(-c2cc(Cl)c(Cl)c(Cl)c2Cl)cc1Cl [PCB 180, 2,2′,3′,4,4′,5,5′-heptachlorobiphenyl]
Specific [3H]SCH23390 binding to D1/D5 dopamine receptors in cerebrum vs controls ([1]; 1000 mg/kg bw): No significant differences
Dopamine D1/D5 receptor binding ([1]; total dose 1000 mg/kg bw, group mean): 1075 DPM1
CED, F yield [2, 3]: 2860 µg/g lipid
CED-L, F yield [2, 3]: 1647 µg/g lipid
CED, F yield [2, 4]: 5880 µg/g lipid
CED-L, F yield [2, 4]: 3384 µg/g lipid
Emax ([2]; F, model E2, controls vs high dose according to the fitted model, read-out: Maximum response, F yield): -18.3%
Emax ([2]; females, controls vs high dose, fitted model, read-out: F yield, Maximum response): -16.7%
F yield, CED ([2]; females, CES 5%): 476 mg/kg bw
F yield, CED-L ([2]; females, CES 5%): 266 mg/kg bw
F yield, CED ([2]; females, CES 10%): 978 mg/kg bw
F yield, CED-L ([2]; females, CES 10%): 547 mg/kg bw
Yield force of tibial shaft, CED ([2]; females, adipose tissue concentration based): 2860 µg/g lipid
Biomechanics, diaphysis: Ultimate Deformation [2, 5]: 0.601 mm
Biomechanics, diaphysis: Ultimate Force [2, 5]: 108 N
Biomechanics, diaphysis: Yield Deformation [2, 5]: 0.291 mm
Biomechanics, diaphysis: Yield Force [2, 5]: 72.2 N
Biomechanics, diaphysis: Ultimate Deformation [2, 6]: 0.634 mm
Biomechanics, diaphysis: Ultimate Force [2, 6]: 106 N
Biomechanics, diaphysis: Yield Deformation [2, 6]: 0.295 mm
Biomechanics, diaphysis: Yield Force [2, 6]: 65.9 N
Biomechanics, diaphysis: Ultimate Deformation [2, 7]: 0.763 mm
Biomechanics, diaphysis: Ultimate Force [2, 7]: 112 N
Biomechanics, diaphysis: Yield Deformation [2, 7]: 0.378 mm
Biomechanics, diaphysis: Yield Force [2, 7]: 81.2 N
Biomechanics, diaphysis: Ultimate Deformation [2, 8]: 0.622 mm
Biomechanics, diaphysis: Ultimate Force [2, 8]: 100 N
Biomechanics, diaphysis: Yield Deformation [2, 8]: 0.360 mm
Biomechanics, diaphysis: Yield Force [2, 8]: 79.7 N
Biomechanics, diaphysis: Ultimate Deformation [2, 9]: 0.640 mm
Biomechanics, diaphysis: Ultimate Force [2, 9]: 104 N
Biomechanics, diaphysis: Yield Deformation [2, 9]: 0.341 mm
Biomechanics, diaphysis: Yield Force [2, 9]: 76.7 N
Biomechanics, diaphysis: Ultimate Deformation [2, 10]: 0.645 mm
Biomechanics, diaphysis: Ultimate Force [2, 10]: 105 N
Biomechanics, diaphysis: Yield Deformation [2, 10]: 0.316 mm
Biomechanics, diaphysis: Yield Force [2, 10]: 71.4 N
Biomechanics, diaphysis: Ultimate Deformation [2, 11]: 0.691 mm
Biomechanics, diaphysis: Ultimate Force [2, 11]: 109 N
Biomechanics, diaphysis: Yield Deformation [2, 11]: 0.276 mm
Biomechanics, diaphysis: Yield Force [2, 11]: 60.4 N
Dose response: Biomechanics, diaphysis, Yield Force ([2]; tibia, females, total doses 0-1700 mg/kg bw): D
Biomechanics, diaphysis: Ultimate Deformation [2, 12]: 0.888 mm
Biomechanics, diaphysis: Ultimate Force [2, 12]: 123 N
Biomechanics, diaphysis: Yield Deformation [2, 12]: 0.423 mm
Biomechanics, diaphysis: Yield Force [2, 12]: 84.8 N
Biomechanics, diaphysis: Ultimate Deformation [2, 13]: 0.727 mm
Biomechanics, diaphysis: Ultimate Force [2, 13]: 131 N
Biomechanics, diaphysis: Yield Deformation [2, 13]: 0.333 mm
Biomechanics, diaphysis: Yield Force [2, 13]: 71.9 N
Biomechanics, diaphysis: Ultimate Deformation [2, 14]: 0.704 mm
Biomechanics, diaphysis: Ultimate Force [2, 14]: 122 N
Biomechanics, diaphysis: Yield Deformation [2, 14]: 0.346 mm
Biomechanics, diaphysis: Yield Force [2, 14]: 78.4 N
Biomechanics, diaphysis: Ultimate Deformation [2, 15]: 0.786 mm
Biomechanics, diaphysis: Ultimate Force [2, 15]: 130 N
Biomechanics, diaphysis: Yield Deformation [2, 15]: 0.395 mm
Biomechanics, diaphysis: Yield Force [2, 15]: 87.0 N
Biomechanics, diaphysis: Ultimate Deformation [2, 16]: 0.758 mm
Biomechanics, diaphysis: Ultimate Force [2, 16]: 132 N
Biomechanics, diaphysis: Yield Deformation [2, 16]: 0.295 mm
Biomechanics, diaphysis: Yield Force [2, 16]: 69.0 N
Biomechanics, diaphysis: Ultimate Deformation [2, 17]: 0.772 mm
Biomechanics, diaphysis: Ultimate Force [2, 17]: 120 N
Biomechanics, diaphysis: Yield Deformation [2, 17]: 0.446 mm
Biomechanics, diaphysis: Yield Force [2, 17]: 93.0 N
Biomechanics, diaphysis: Ultimate Deformation [2, 18]: 0.769 mm
Biomechanics, diaphysis: Ultimate Force [2, 18]: 118 N
Biomechanics, diaphysis: Yield Deformation [2, 18]: 0.346 mm
Biomechanics, diaphysis: Yield Force [2, 18]: 81.2 N
